Tested on: LNCaP cells
Test: Inhibition of the proliferation of LNCaP cells (crystal violet assay)
Format: cell-based, human
Conditions: for inhibition at 1 µM / IC50: Homo sapiens, LNCaP; for inhibition at 1 µM: 1 μM test substance, compared to cell growth in the presence of 0.1 nmol of R1881, read-out: % Inhibition at 1 μM; for IC50: in the presence of 0.1 nmol of R1881, 7 to 8 days, read-out: IC50 inhibition of the proliferation of LNCaP cells; for antiproliferative action (in words): LNCaP cells
Method: For the proliferation assay, 6000 LNCaP cells/well (Horoszewicz et al. Cancer Res. 1983, 43, 1809–1817) in a microtiter plate (96-well) in 50 μl of RPMI1640 medium are grown with 5% CCS and cultivated as in Model 1. After 24 hours, the cells receive 50 μl of 2×-concentrated test substance, diluted in culture medium. The solvent concentration is 0.5% DMSO. After 4 days, the cells receive another 100 μl of 1×-concentrated test substance, diluted in culture medium. After 7 to 8 days, the proliferation rate of the cells is determined by means of crystal violet assay (Gillies et al. Anal. Biochem. 1986, 159, 109–113). To determine the antagonism, the substance treatment is performed in the presence of […] of R1881 (1:1000 dilution of ethanolic solution). Control cells receive only 0.5% DMSO. For the agonism, the cells are treated only with test substance (without R1881).

SMILES	inhibition at 1 µM [%]	IC50 [nM]	antiproliferative action (in words)
CC1(C)C(=O)N(c2ccc(C#N)c(C(F)(F)F)c2)C(=S)N1CCCCN1CCCC1 [Comparison 1, 4-[4,4-Dimethyl-5-oxo-3-[4-(pyrrolidin-1-yl)butyl]-2-thioxoimidazolidin-1-yl]-2-(trifluoromethyl)benzonitrile, reference compound]	20	4300	considerably reduced antiproliferative activity
CC1(C)C(=O)N(c2ccc(C#N)c(C(F)(F)F)c2)C(=S)N1CCCCCN1CCCC1 [Comparison 2, 4-[4,4-Dimethyl-5-oxo-3-[5-(pyrrolidin-1-yl)pentyl]-2-thioxoimidazolidin-1-yl]-2-(trifluoromethyl)benzonitrile, reference compound]	38	2100	considerably reduced antiproliferative activity
CC1(C)C(=O)N(c2ccc(C#N)c(C(F)(F)F)c2)C(=S)N1CCCCCCCN1CCCC1 [Example 4, 4-[4,4-Dimethyl-5-oxo-3-[7-(pyrrolidin-1-yl)heptyl]-2-thioxoimidazolidin-1-yl]-2-(trifluoromethyl)benzonitrile]	98	45	
CC1(C)C(=O)N(c2ccc(C#N)c(C(F)(F)F)c2)C(=S)N1CCCCCCN1CCC[C@@H]1CO [Example 6, 4-[3-[6-[(2R)-2-(Hydroxymethyl)pyrrolidin-1-yl]hexyl]-4,4-dimethyl-5-oxo-2-thioxoimidazolidin-1-yl]-2-(trifluoromethyl)benzonitrile]	102	55	
CC1(C)C(=O)N(c2ccc(C#N)c(C(F)(F)F)c2)C(=S)N1CCCCCCCN1CCC[C@@H]1CO [Example 8, 4-[3-[7-[(2R)-2-(Hydroxymethyl)pyrrolidin-1-yl]heptyl]-4,4-dimethyl-5-oxo-2-thioxoimidazolidin-1-yl]-2-(trifluoromethyl)benzonitrile]	101	11	
CC1(C)C(=O)N(c2ccc(C#N)c(C(F)(F)F)c2)C(=S)N1CCCCCCCCCN1CCC[C@@H]1CO [Example 12, 4-[3-[9-[(2R)-2-(Hydroxymethyl)pyrrolidin-1-yl]nonyl]-4,4-dimethyl-5-oxo-2-thioxoimidazolidin-1-yl]-2-(trifluoromethyl)benzonitrile]	93	24	
CC1(C)C(=O)N(c2ccc(C#N)c(C(F)(F)F)c2)C(=S)N1CCCCCCCCCN1CCC[C@H]1CO [Example 13, 4-[3-[9-[(2S)-2-(Hydroxymethyl)pyrrolidin-1-yl]nonyl]-4,4-dimethyl-5-oxo-2-thioxoimidazolidin-1-yl]-2-(trifluoromethyl)benzonitrile]	88	16	
COC[C@H]1CCCN1CCCCCCCN1C(=S)N(c2ccc(C#N)c(C(F)(F)F)c2)C(=O)C1(C)C [Example 16, 4-[3-[7-[(2R)-2-(Methoxymethyl)pyrrolidin-1-yl]heptyl]-4,4-dimethyl-5-oxo-2-thioxoimidazolidin-1-yl]-2-(trifluoromethyl)benzonitrile]	98	18	
COC[C@@H]1CCCN1CCCCCCCN1C(=S)N(c2ccc(C#N)c(C(F)(F)F)c2)C(=O)C1(C)C [Example 17, 4-[3-[7-[(2S)-2-(Methoxymethyl)pyrrolidin-1-yl]heptyl]-4,4-dimethyl-5-oxo-2-thioxoimidazolidin-1-yl]-2-(trifluoromethyl)benzonitrile]	99	32	
COC[C@H]1CCCN1CCCCCCCCN1C(=S)N(c2ccc(C#N)c(C(F)(F)F)c2)C(=O)C1(C)C [Example 18, 4-[3-[8-[(2R)-2-(Methoxymethyl)pyrrolidin-1-yl]octyl]-4,4-dimethyl-5-oxo-2-thioxoimidazolidin-1-yl]-2-(trifluoromethyl)benzonitrile]	103	11	
COC[C@@H]1CCCN1CCCCCCCCN1C(=S)N(c2ccc(C#N)c(C(F)(F)F)c2)C(=O)C1(C)C [Example 19, 4-[3-[8-[(2S)-2-(Methoxymethyl)pyrrolidin-1-yl]octyl]-4,4-dimethyl-5-oxo-2-thioxoimidazolidin-1-yl]-2-(trifluoromethyl)benzonitrile]	97	25	
COC[C@H]1CCCN1CCCCCCCCCN1C(=S)N(c2ccc(C#N)c(C(F)(F)F)c2)C(=O)C1(C)C [Example 20, 4-[3-[9-[(2R)-2-(Methoxymethyl)pyrrolidin-1-yl]nonyl]-4,4-dimethyl-5-oxo-2-thioxoimidazolidin-1-yl]-2-(trifluoromethyl)benzonitrile]	101	29	
COC[C@@H]1CCCN1CCCCCCCCCN1C(=S)N(c2ccc(C#N)c(C(F)(F)F)c2)C(=O)C1(C)C [Example 21, 4-[3-[9-[(2S)-2-(Methoxymethyl)pyrrolidin-1-yl]nonyl]-4,4-dimethyl-5-oxo-2-thioxoimidazolidin-1-yl]-2-(trifluoromethyl)benzonitrile]	94	47	
CC1(C)C(=O)N(c2ccc(C#N)c(C(F)(F)F)c2)C(=S)N1CCCCCCCN1C2CCC1CC(O)C2 (stereo not shown) [Example 23, 4-[3-[7-(3-Hydroxy-8-azabicyclo[3.2.1]oct-8-yl)heptyl]-4,4-dimethyl-5-oxo-2-thioxoimidazolidin-1-yl]-2-(trifluoromethyl)benzonitrile]	79	48	
CC1(C)C(=O)N(c2ccc(C#N)c(C(F)(F)F)c2)C(=S)N1CCCCCCCCN1C2CCC1CC(O)C2 (stereo not shown) [Example 24, 4-[3-[8-(3-Hydroxy-8-azabicyclo[3.2.1]oct-8-yl)octyl]-4,4-dimethyl-5-oxo-2-thioxoimidazolidin-1-yl]-2-(trifluoromethyl)benzonitrile]	102	13	
CC1(C)C(=O)N(c2ccc(C#N)c(C(F)(F)F)c2)C(=S)N1CCCCCCCN1CC[C@@H](O)C1 [Example 27, 4-[3-[7-[(R)-3-Hydroxypyrrolidin-1-yl]heptyl]-4,4-dimethyl-5-oxo-2-thioxoimidazolidin-1-yl]-2-(trifluoromethyl)benzonitrile]	95	57	
CC1(C)C(=O)N(c2ccc(C#N)c(C(F)(F)F)c2)C(=S)N1CCCCCCCCN1CC[C@@H](O)C1 [Example 28, 4-[3-[8-[(R)-3-Hydroxypyrrolidin-1-yl]octyl]-4,4-dimethyl-5-oxo-2-thioxoimidazolidin-1-yl]-2-(trifluoromethyl)benzonitrile]	102	11	
CC1(C)C(=O)N(c2ccc(C#N)c(C(F)(F)F)c2)C(=S)N1CCCCCCCCCN1CC[C@@H](O)C1 [Example 29, 4-[3-[9-[(R)-3-Hydroxypyrrolidin-1-yl]nonyl]-4,4-dimethyl-5-oxo-2-thioxoimidazolidin-1-yl]-2-(trifluoromethyl)benzonitrile]	99	35	
CC1(C)C(=O)N(c2ccc(C#N)c(C(F)(F)F)c2)C(=S)N1CCCCCCCN1CC[C@H](O)C1 [Example 31, 4-[3-[7-[(S)-3-Hydroxypyrrolidin-1-yl]heptyl]-4,4-dimethyl-5-oxo-2-thioxoimidazolidin-1-yl]-2-(trifluoromethyl)benzonitrile]	104	20	
CC1(C)C(=O)N(c2ccc(C#N)c(C(F)(F)F)c2)C(=S)N1CCCCCCCCN1CC[C@H](O)C1 [Example 32, 4-[3-[8-[(S)-3-Hydroxypyrrolidin-1-yl]octyl]-4,4-dimethyl-5-oxo-2-thioxoimidazolidin-1-yl]-2-(trifluoromethyl)benzonitrile]	101	12	
CC1CCCN1CCCCCCCN1C(=S)N(c2ccc(C#N)c(C(F)(F)F)c2)C(=O)C1(C)C (stereo not shown) [Example 35, 4-[4,4-Dimethyl-3-[7-(2-methylpyrrolidin-1-yl)heptyl]-5-oxo-2-thioxoimidazolidin-1-yl]-2-(trifluoromethyl)benzonitrile]	92	30	
CC1CCCN1CCCCCCCCN1C(=S)N(c2ccc(C#N)c(C(F)(F)F)c2)C(=O)C1(C)C (stereo not shown) [Example 36, 4-[4,4-Dimethyl-3-[8-(2-methylpyrrolidin-1-yl)octyl]-5-oxo-2-thioxoimidazolidin-1-yl]-2-(trifluoromethyl)benzonitrile]	96	15	
CC(C)(O)[C@@H]1CCCN1CCCCCCCN1C(=S)N(c2ccc(C#N)c(C(F)(F)F)c2)C(=O)C1(C)C [Example 39, 4-[3-[7-[(2S)-2-(1-Hydroxy-1-methylethyl)pyrrolidin-1-yl]heptyl]-4,4-dimethyl-5-oxo-2-thioxoimidazolidin-1-yl]-2-(trifluoromethyl)benzonitrile]	108	41	
CC(C)(O)[C@@H]1CCCN1CCCCCCCCCN1C(=S)N(c2ccc(C#N)c(C(F)(F)F)c2)C(=O)C1(C)C [Example 41, 4-[3-[9-[(2S)-2-(1-Hydroxy-1-methylethyl)pyrrolidin-1-yl]nonyl]-4,4-dimethyl-5-oxo-2-thioxoimidazolidin-1-yl]-2-(trifluoromethyl)benzonitrile]	89	48	
CC(C)(O)[C@H]1CCCN1CCCCCCCN1C(=S)N(c2ccc(C#N)c(C(F)(F)F)c2)C(=O)C1(C)C [Example 43, 4-[3-[7-[(2R)-2-(1-Hydroxy-1-methylethyl)pyrrolidin-1-yl]heptyl]-4,4-dimethyl-5-oxo-2-thioxoimidazolidin-1-yl]-2-(trifluoromethyl)benzonitrile]	113	26	
